Laboratory results as given in patent US20130157852A1, “HERBICIDAL COMPOSITION CONTAINING FLUROXYPYR AND GLYPHOSATE” (DOW AGROSCIENCES LLC, priority 2011, published 2013).

How the values were obtained:
Format in all cases: in vivo
[1] = tested on: Polygonum convolvulus L. (POLCO, wild buckwheat); experiment: Postemergence field weed control, POLCO; conditions: 14 DAA
Protocol: (§1) Evaluation of Postemergence Herbicidal Activity of Mixtures under Field Conditions Methodology
(§2) Trial sites were located in various countries around the world, including Brazil, United States, Hungary, Indonesia and Malaysia, in non-crop and perennial tree crop plantations. Trials were conducted using normal small plot R&D trials using standard research methodology. Trial plots were between 2 to 4 meters (m) wide by 3 to 10 m long. All treatments were applied using a randomized complete block or factorial trial design with 3-4 replications per treatment. The trial sites had naturally occurring populations of weeds. The weed spectrum included, but was not limited to, scarlet pimpernel (Anagallis arvensis L., ANGAR), tropical carpetgrass (Axonopus compressus, AXOCO), Canada thistle (Cirsium arvense (L.) Scop., CIRAR), calopo (Calopogonium mucunoides, CLOMU), Bengal dayflower (Commelina benghalensis L., COMBE), field bindweed (Convolvus arvensis, CONAR), horseweed (Conyza canadensis (L.) Cronq., ERICA), kochia (Kochia scoparia (L.) Schrad., KCHSC), common mallow (Malva neglecta Wallr., MALNE), African mile-a-minute (Mikania cordata (Burm. f.) B. L., MIKCO), slender panicgrass (Ottochloa nodosa, OTTNO), paspalum (Paspalum conjugatum Bergius, PASCO), wild buckwheat (Polygonum convolvulus L., POLCO) and stinging nettle (Urtica dioica L., URTDI).
(§3) Treatments consisted of tank mixes of commercially available formulations of fluoroxypyr-meptyl ester (Starane® 200, Starane® 250, Starane® Ultra) and glyphosate (Roundup® isopropylammonium salt, Glizmax, Gliz) applied in water. The application volume varied from location to location but was from 100 to 450 liters per hectare (L/ha). Application was made using a precision gas backpack sprayer at pressures ranging from 150 to 300 kPA pressure using 2 to 4 m booms utilizing 4 to 8 flat fan nozzles to broadcast the treatments to the weeds and to the soil.
(§4) The treated and control plots were rated blind at various intervals after application. Ratings were based on Percent (%) Visual weed control, where 0 corresponds to no control and 100 corresponds to complete control.
(§5) Colby's equation was used to determine the herbicidal effects expected from the mixtures (Colby, S. R. Calculation of the synergistic and antagonistic response of herbicide combinations. Weeds 1967 15, 20-22).
(§6) The following equation was used to calculate the expected activity of mixtures containing two active ingredients, A and B:
(§7) A=observed efficacy of active ingredient A at the same concentration as used in the mixture;
(§8) B=observed efficacy of active ingredient B at the same concentration as used in the mixture.

[2] = tested on: Malva neglecta Wallr. (MALNE, common mallow); experiment: Postemergence field weed control, MALNE; conditions: 14 DAA
Protocol: as §1
as §2, with “URTDI). […]” for “URTDI).”

[3] = tested on: Commelina benghalensis L. (COMBE, Bengal dayflower); experiment: Postemergence field weed control, COMBE; conditions: 28 DAA
Protocol: as §1
as §2, with “URTDI). […]” for “URTDI).”

[4] = tested on: Cirsium arvense (L.) Scop. (CIRAR, Canada thistle); experiment: Postemergence field weed control, CIRAR
Protocol: as §1, §2, §3, §4, §5, §6, §7, §8

[5] = tested on: Axonopus compressus (AXOCO, tropical carpetgrass); experiment: Postemergence field weed control, AXOCO; conditions: 70 DAA
Protocol: as §1
as §2, with “URTDI). […]” for “URTDI).”

[6] = tested on: Convolvus arvensis (CONAR, field bindweed); experiment: Postemergence field weed control, CONAR; conditions: 59 DAA
Protocol: as §1, §2, §3, §4, §5, §6, §7, §8

[7] = tested on: Mikania cordata (MIKCO, African mile-a-minute); experiment: Postemergence field weed control, MIKCO; conditions: 28 DAA
Protocol: as §1
as §2, with “URTDI). […]” for “URTDI).”

[8] = tested on: Conyza canadensis (L.) Cronq. (ERICA, horseweed); experiment: Postemergence field weed control, ERICA; conditions: 43 DAA
Protocol: as §1, §2, §3
The treated and control plots were rated blind at various intervals after application. […]

[9] = tested on: Calopogonium mucunoides (CLOMU, calopo); experiment: Postemergence field weed control, CLOMU; conditions: 70 DAA
Protocol: as §1
as §2, with “URTDI). […]” for “URTDI).”

[10] = tested on: Urtica dioica L. (URTDI, stinging nettle); experiment: Postemergence field weed control, URTDI; conditions: 28 DAA
Protocol: as §1
as §2, with “URTDI). […]” for “URTDI).”

[11] = tested on: Paspalum conjugatum Bergius (PASCO, sour paspalum); experiment: Postemergence field weed control, PASCO; conditions: 70 DAA
Protocol: as §1
as §2, with “URTDI). […]” for “URTDI).”

[12] = tested on: Ottochloa nodosa (OTTNO, slender panicgrass); experiment: Postemergence field weed control, OTTNO; conditions: 70 DAA
Protocol: as §1
as §2, with “URTDI). […]” for “URTDI).”

[13] = tested on: Anagallis arvensis L. (ANGAR, scarlet pimpernel); experiment: Postemergence field weed control, ANGAR; conditions: 14 DAA
Protocol: as §1
as §2, with “URTDI). […]” for “URTDI).”

[14] = tested on: Kochia scoparia (L.) Schrad. (KCHSC, kochia); experiment: Postemergence field weed control, KCHSC; conditions: 36 DAA
Protocol: as §1
as §2, with “URTDI). […]” for “URTDI).”

[15] = fluroxypyr-meptyl 200 grams ae/ha alone, Table 3
[16] = fluroxypyr-meptyl 400 grams ae/ha alone, Table 4
[17] = fluroxypyr-meptyl 200 grams ae/ha alone
[18] = fluroxypyr-meptyl 53 gae/ha alone
[19] = glyphosate-isopropylammonium 1000 grams ae/ha alone
[20] = glyphosate-isopropylammonium 500 gae/ha alone

CCCCCCC(C)OC(=O)COc1nc(F)c(Cl)c(N)c1Cl (stereo not drawn) [Fluroxypyr-meptyl, fluoroxypyr-meptyl]
POLCO Obs (Observed weed control) [1, 15]: 52% | POLCO Obs (Observed weed control) ([1]; fluroxypyr-meptyl 400 grams ae/ha alone, Table 3): 68% | POLCO Obs (Observed weed control) [1, 16]: 60% | MALNE Obs (Observed weed control) [2, 17]: 48% | COMBE Obs (Observed weed control) [3, 17]: 36% | CIRAR Obs (Observed weed control) ([4]; fluroxypyr-meptyl 300 grams ae/ha alone, 59 DAA): 3% | CIRAR Obs (Observed weed control) ([4]; fluroxypyr-meptyl 400 grams ae/ha alone, 14 DAA): 7% | AXOCO Obs (Observed weed control) [5, 18]: 0% | CONAR Obs (Observed weed control) [6, 15]: 47% | CONAR Obs (Observed weed control) ([6]; fluroxypyr-meptyl 300 grams ae/ha alone, Table 4): 50% | CONAR Obs (Observed weed control) [6, 16]: 48% | MIKCO Obs (Observed weed control) ([7]; fluroxypyr-meptyl 50 grams ae/ha alone): 42% | ERICA Obs (Observed weed control) ([8]; fluroxypyr-meptyl 140 grams ae/ha alone): 4% | CLOMU Obs (Observed weed control) [9, 18]: 69% | URTDI Obs (Observed weed control) [10, 17]: 10% | PASCO Obs (Observed weed control) [11, 18]: 0% | OTTNO Obs (Observed weed control) [12, 18]: 0% | ANGAR Obs (Observed weed control) ([13]; fluroxypyr-meptyl 400 grams ae/ha alone): 0% | KCHSC Obs (Observed weed control) ([14]; fluroxypyr-meptyl 67 grams ae/ha alone): 48%

O=C(O)CNCP(=O)(O)O [Glyphosate-isopropylammonium, glyphosate-isopropylammonium]
POLCO Obs (Observed weed control) ([1]; glyphosate-isopropylammonium 1000 grams ae/ha alone, Table 3): 25% | POLCO Obs (Observed weed control) ([1]; glyphosate-isopropylammonium 1000 grams ae/ha alone, Table 4): 25% | POLCO Obs (Observed weed control) ([1]; glyphosate-isopropylammonium 1500 grams ae/ha alone, Table 3): 60% | MALNE Obs (Observed weed control) [2, 19]: 14% | COMBE Obs (Observed weed control) ([3]; glyphosate-isopropylammonium 710 grams ae/ha alone): 43% | CIRAR Obs (Observed weed control) ([4]; glyphosate-isopropylammonium 1000 grams ae/ha alone, 14 DAA): 58% | CIRAR Obs (Observed weed control) ([4]; glyphosate-isopropylammonium 1000 grams ae/ha alone, 59 DAA): 58% | AXOCO Obs (Observed weed control) [5, 20]: 59% | CONAR Obs (Observed weed control) ([6]; glyphosate-isopropylammonium 1500 grams ae/ha alone, Table 4): 43% | CONAR Obs (Observed weed control) ([6]; glyphosate-isopropylammonium 2000 grams ae/ha alone, Table 3): 55% | CONAR Obs (Observed weed control) ([6]; glyphosate-isopropylammonium 2000 grams ae/ha alone, Table 4): 55% | MIKCO Obs (Observed weed control) ([7]; glyphosate-isopropylammonium 360 grams ae/ha alone): 58% | ERICA Obs (Observed weed control) ([8]; glyphosate-isopropylammonium 560 grams ae/ha alone): 18% | ERICA Obs (Observed weed control) ([8]; glyphosate-isopropylammonium 840 grams ae/ha alone): 73% | CLOMU Obs (Observed weed control) [9, 20]: 64% | URTDI Obs (Observed weed control) ([10]; glyphosate-isopropylammonium 1100 grams ae/ha alone): 24% | PASCO Obs (Observed weed control) [11, 20]: 59% | OTTNO Obs (Observed weed control) [12, 20]: 59% | ANGAR Obs (Observed weed control) [13, 19]: 43% | KCHSC Obs (Observed weed control) ([14]; glyphosate-isopropylammonium 280 grams ae/ha alone): 23%
